Results: PMC12142043, “Cell-based high-content approach for SARS-CoV-2 neutralization identifies unique monoclonal antibodies and PI3K pathway inhibitors” (Frontiers in Cell and Developmental Biology, 2025)
Read-outs that look alike come from different tables or passages of the source.

Columns and labels:
[1] = system: SARS-CoV-2 (USA-WA1/2020) in Calu-3 cells; test: microbe, parasite or virus in culture; assay type: cell-based; settings: for Effect on dsRNA / virus in dose response: Figure 5C-F; for EC50: read-out: EC50 (μM) dsRNA
[2] = system: Calu-3 cells infected with SARS-CoV-2; assay type: cell-based, human; set-up: key to Grouping with red cluster (mock control) in UMAP: *: Clusters with mock control in high-dose treatment; settings: for Shift in UMAP space with increasing concentration: Figure 5C-F; for Grouping with red cluster (mock control) in UMAP: high-dose treatment
Calu-3 cells [3] = settings: for Effect on host cell viability and morphology: Figure 5C-F; for EC50: read-out: EC50 (μM) Cell count, Calu-3, DAPI-stained nuclei, above 30 μM reported as >30
Calu-3 cells [4] = test: cells; settings: Homo sapiens, Calu-3, read-out: EC50 (μM) Cell count
[5] = system: SARS-CoV-2 (USA-WA1/2020) in Calu-3 cells; assay type: cell-based; settings: for dsRNA signal, AU High: high dose (10 µM); for dsRNA signal, AU High / dsRNA signal, AU Low: Calu-3, 48 h; for dsRNA signal, AU Low: low dose (100 nM)
[6] = system: SARS-Cov-2 WA strain in A549 lung cells; assay type: cell-based
[7] = Severe acute respiratory syndrome coronavirus 2, Calu-3, 48 h, […], above 30 μM reported as >30
[8] = […], above 30 μM reported as >30
[9] = fold: cell count EC50 over dsRNA EC50

SMILES	Effect on dsRNA / virus in dose response [1]	EC50 [1, 7] [µM]	Shift in UMAP space with increasing concentration [2]	Effect on host cell viability and morphology (Calu-3 cells [3])	EC50 (Calu-3 cells [4]) [µM]	EC50 (μM) dsRNA [1, 8]	Grouping with red cluster (mock control) in UMAP [2]	dsRNA signal, AU High [5] [AU]	dsRNA signal, AU Low [5] [AU]	EC50 (Calu-3 cells [3]) [µM]	Selectivity index [1, 9]	Reduction of infection in representative images ([5]; Figure 4A)	Selectivity index [1]	Synergy (ZIP synergy model) [6]	EC50 [1, 8] [µM]
CCc1cc2c(cc1N1CCC(N3CCOCC3)CC1)C(C)(C)c1[nH]c3cc(C#N)ccc3c1C2=O [CH5424802]	reduced dsRNA very well	> 30	adjacent yellow cluster	blebbing and general toxicity	> 30	–	–	–	–	–	–	–	–	–	–
O=C(O[C@@H]1Cc2c(O)cc(O)cc2O[C@@H]1c1cc(O)c(O)c(O)c1)c1cc(O)c(O)c(O)c1 [Epigallocatechin gallate (EGCG), Epigallocatechin gallate]	–	–	–	–	–	None	Epigallocatechin gallate (EGCG)*	14230.9	24448.0	> 30	–	–	–	–	–
Cc1c(Cn2c(C)nc3c(C(=O)O)cc(N4CCOCC4)cc32)cccc1C(F)(F)F [GSK2636771]	reduction of dsRNA	0.319	shift closer to cluster 1 controls	minimal effect on host cell viability and morphology	> 30	–	GSK2636771*	841.3	28354.9	–	>94	reduced infection greatly	–	–	–
CC(C)n1nc(-c2ccc3oc(N)nc3c2)c2c(N)ncnc21 [INK 128]	–	0.213	moving into cluster 1	little effect on host cell viability	2.47	–	INK 128*	0.0	31875.7	–	–	–	11.590	Antagonism	–
CN(c1ncccc1CNc1nc(Nc2ccc3c(c2)CC(=O)N3)ncc1C(F)(F)F)S(C)(=O)=O [PF-00562271]	–	–	–	–	–	–	PF-00562271*	–	36485.5	4.39	0.510	–	–	–	8.6
Cc1ccc(Nc2nccc(N(C)c3ccc4c(C)n(C)nc4c3)n2)cc1S(N)(=O)=O.Cl [Pazopanib HCl]	–	–	–	–	–	–	Pazopanib HCl*	14157.8	9479.9	> 30	>3.5	–	–	–	8.64
